Patent US8273743B2, “Quinoxaline inhibitors of the hedgehog signalling” (Curis, Inc., priority 2004, dated 2012)

system: hedgehog pathway signaling (10T1/2-GliLuc [s12] or HEPM-GliLuc [MZ24] Gli reporter cell lines); assay: Hedgehog signalling inhibition assay (Gli-luciferase reporter gene assay); assay type: cell-based; conditions: average IC50; either mouse [s12] or human [MZ24] Gli reporter cell lines; with Sonic hedgehog-octyl conjugate, 24 hrs
Procedure: Mouse Reporter Cell lines—10T1/2-GliLuc [s12] cells (derived from cell line C3H10T1/2 ATCC #CCL-226); Mouse Embryonic Fibroblasts); Growth Medium: Dulbecco's modified Eagles' Medium (DMEM) supplemented with 10% Fetal Bovine Serum (FBS), 10 units/mL penicillin, 100 ug/mL streptomycin, 2 mM glutamine, and 10 mM HEPES.
Human Reporter Cell lines—HEPM-GliLuc [MZ24]—cells (derived from HEPM, Human Embryonic Palatal Mesenchyme ATCC #CRL-1486); Growth Medium: Minimum Essential Medium (MEM; with Earle's salts) supplemented with 10-20% Fetal Bovine Serium (FBS), 10 units/mL penicillin, 100 ug/mL streptomycin, 2 mM glutamine, and 10 mM HEPES pH 7.2.
Sonic hedgehog—recombinant human SHh N-terminal octylated conjugate.
Microtiter Plates (MTPs)—For the Luciferase assay cells are plated in 96-well MTPs (White, Flat-bottom, Clear-View).
Luciferase-Assay Medium—DMEM supplemented with 0.5% FBS, 10 units/mL penicillin, 100 ug/mL streptomycin, 2 mM glutamine, and 10 mM HEPES pH 7.2.
PBS/Ca/Mg Mix—Phosphate Buffered Saline (PBS) supplemented with 0.5 mM CaCl2 and 1 mM MgCl2.
S12 and MZ24 cells genetically modified to contain a luciferase reporter gene driven by the hedgehog-responsive Gli promoter were maintained on tissue culture dishes in Growth Medium at 37° C. and 5% CO2. Cell cultures were passaged at sub-confluency at every 3-4 days. (1:20 to 1:40 for s12; 1:3 to 1:10 for MZ24). Cells were harvested and diluted in Growth Medium such that they could be plated in a microtitre plate at 10,000-20,000 cells (s12), or 20,000-30,000 cells (MZ24), per 100 ul, per well. Cells were further incubated for ˜24-48 hours at 37° C. and 5% CO2.
After ˜24-48 hour incubation the Growth Medium in the microtitre plates was replaced by Luciferase-Assay Medium (100 ul per well), with and without Sonic hedgehog-octyl conjugate, at 0.1-0.3 ug/ml (S12) or 0.5-1.0 ug/ml (MZ24), and test compounds. Cells were then further incubated for and additional 24 hrs.
Microtitre plates were then subjected to the luciferase reporter gene assay kit (LucLite™), with modifications to the manufacturer's procedure wherein medium was removed and the substrate was reconstituted with 1:1 PBS/Ca/Mg:lysis buffer instead of straight lysis buffer. In brief, the PBS/Ca/Mg was mixed 1:1 with lysis buffer and 10 mL were added to each substrate vial (of the 1000-assay kit). Then the assay media from the microtitre plate was discarded, and 100 ul of this substrate mix was added to each well. Plates were incubated at room temperature for 20-30 minutes and then the Relative Light Units (RLUS) representing the relative expression level of the luciferase reporter gene were determined with a Topcount reader (Packard) or an Analyst reader (Molecular Devices).
The following table 1 represents the average IC50 values for particular compounds tested according to the procedures above using either mouse [s12] or human [MZ24] Gli reporter cell lines indicating inhibition of hedgehog pathway signaling.

| IC50 [µM] | SMILES |
| --- | --- |
| < 1 | O=C(Nc1ccc(Cl)c(-c2cnc3ccccc3n2)c1)c1cccnc1F [compound 6] |
| < 1 | Cc1ccsc1C(=O)Nc1ccc(Cl)c(-c2cnc3ccccc3n2)c1 [compound 7] |
| < 1 | O=C(Nc1ccc(Cl)c(-c2cnc3ccccc3n2)c1)c1ccc(Cl)nc1Cl [compound 15] |
| < 1 | CS(=O)(=O)c1ccc(C(=O)Nc2ccc(Cl)c(-c3cnc4ccccc4n3)c2)cc1 [compound 18] |
| < 1 | O=C(Nc1ccc(Cl)c(-c2cnc3ccccc3n2)c1)c1ccc2cc[nH]c2c1 [compound 19] |
| < 1 | CS(=O)(=O)c1cccc(C(=O)Nc2ccc(Cl)c(-c3cnc4ccccc4n3)c2)c1 [compound 24] |
| < 1 | O=C(Nc1ccc(Cl)c(-c2cnc3ccccc3n2)c1)C1CC1 [compound 27] |
| < 1 | Cc1cc(C(=O)Nc2ccc(Cl)c(-c3cnc4ccccc4n3)c2)c(C(F)(F)F)o1 [compound 31] |
| < 1 | O=C(Nc1ccc(Cl)c(-c2cnc3ccccc3n2)c1)c1cccc(Cl)c1 [compound 33] |
| < 1 | O=C(Nc1ccc(Cl)c(-c2cnc3ccccc3n2)c1)c1ccc(Cl)cc1 [compound 34] |
| < 1 | O=C(Nc1ccc(Cl)c(-c2cnc3ccccc3n2)c1)c1cccnc1 [compound 35] |
| < 1 | O=C(Nc1ccc(Cl)c(-c2cnc3ccccc3n2)c1)c1ccc(Cl)nc1 [compound 36] |
| < 1 | O=C(Nc1ccc(Cl)c(-c2cnc3ccccc3n2)c1)c1cccnc1Cl [compound 37] |
| < 1 | O=C(Nc1ccc(Cl)c(-c2cnc3ccccc3n2)c1)c1cccs1 [compound 38] |
| < 1 | Cc1nc(C(F)(F)F)ccc1C(=O)Nc1ccc(Cl)c(-c2cnc3c(F)cc(F)cc3n2)c1 [compound 39] |
| < 1 | Cc1nc(C(F)(F)F)ccc1C(=O)Nc1ccc(Cl)c(-c2cnc3c(F)c(F)ccc3n2)c1 [compound 40] |
| < 1 | Cc1nc(C(F)(F)F)ccc1C(=O)Nc1ccc(Cl)c(-c2cnc3cc(F)c(F)cc3n2)c1 [compound 41] |
| < 1 | Cc1cc2ncc(-c3cc(NC(=O)c4ccc(C(F)(F)F)nc4C)ccc3Cl)nc2cc1C [compound 42] |
| < 1 | Cc1nc(C(F)(F)F)ccc1C(=O)Nc1ccc(Cl)c(-c2cnc3cc(F)ccc3n2)c1 [compound 43] |
| < 1 | O=C(Nc1ccc(Cl)c(-c2cnc3ccccc3n2)c1)c1cccc2c1OCCO2 [compound 44] |
| < 1 | Cc1ccc2ncc(-c3cc(NC(=O)c4ccc(C(F)(F)F)nc4C)ccc3Cl)nc2c1C [compound 45] |
| < 1 | COc1cc(OC)cc(C(=O)Nc2ccc(Cl)c(-c3cnc4c(C)cccc4n3)c2)c1 [compound 46] |
| < 1 | Cc1nc(C(F)(F)F)ccc1C(=O)Nc1ccc(Cl)c(-c2cnc3c(C)cccc3n2)c1 [compound 47] |
| < 1 | Cc1cc(C)c2nc(-c3cc(NC(=O)c4ccc(C(F)(F)F)nc4C)ccc3Cl)cnc2c1 [compound 48] |
| < 1 | COc1cc(OC)cc(C(=O)Nc2ccc(Cl)c(-c3cnc4ccc(C)c(C)c4n3)c2)c1 [compound 54] |
| < 1 | Cc1nc(C(F)(F)F)ccc1C(=O)Nc1ccc(Cl)c(-c2cnc3cccnc3n2)c1 [compound 55] |
| < 1 | CC(C)CC(=O)Nc1ccc(Cl)c(-c2cnc3ccccc3n2)c1 [compound 56] |
